Results: the supplement of paper PMC5579334

Columns and labels:
[1] = tested on: HSC1; experiment: relative IC50 (inflection point of fitted dose-response curve, CellTox-Green cytotoxicity, 72 h; top asymptote may be below 50%); higher = less potent
Procedure, shortened: (§1)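 For 72 h at 37 °C, MPNST cell lines and primary human Schwann cells were exposed in 384-well plates to five 10-fold compound dilutions. CellTox-Green, added before seeding at a final 1:1000 dilution, gave fluorescence from DNA released by disrupted cells. Signals were scaled to vehicle and positive-control wells, cultures failing plate quality control were left out, and four-parameter logistic fits were applied. Relative IC50 and drug sensitivity score were derived from the fits, with IC50 censored at the top concentration.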

[2] = tested on: HSC2; experiment: as above
Procedure, shortened: as §1

[3] = tested on: S1507-2; experiment: as above
Procedure, shortened: as §1

[4] = tested on: HSC1; experiment: relative IC50 (inflection point of fitted dose-response curve, CellTiter-Glo viability, 72 h; top asymptote may be below 50% inhibition); higher = less potent
Procedure, shortened: (§2)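 After seeding 750–1000 cells per well of MPNST cell lines or primary human Schwann cells into 384-well plates preprinted with each compound at five concentrations in 10-fold steps, plates were kept 72 h at 37 °C, 5% CO2. Viability was read as CellTiter-Glo ATP luminescence relative to vehicle and positive-control wells, with duplicates averaged where present. The data were fitted with four-parameter logistic models. Drug sensitivity score and relative IC50, censored at the top concentration, derive from the fits, and percent inhibition refers to the top concentration.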

[5] = tested on: HSC2; experiment: as above
Procedure, shortened: as §2

[6] = tested on: ST8814; experiment: as above
Procedure, shortened: as §2

[7] = tested on: STS26T; experiment: as above
Procedure, shortened: as §2

[8] = tested on: HS-PSS; experiment: relative IC50 (inflection point of fitted dose-response curve, CellTox-Green cytotoxicity, 72 h; top asymptote may be below 50%); higher = less potent
Procedure, shortened: as §1

[9] = tested on: ST8814; experiment: as above
Procedure, shortened: as §1

[10] = tested on: STS26T; experiment: as above
Procedure, shortened: as §1

[11] = tested on: HS-PSS; experiment: relative IC50 (inflection point of fitted dose-response curve, CellTiter-Glo viability, 72 h; top asymptote may be below 50% inhibition); higher = less potent
Procedure, shortened: as §2

[12] = tested on: YST-1; experiment: as above
Procedure, shortened: as §2

[13] = tested on: HS-Sch-2; experiment: as above
Procedure, shortened: as §2

[14] = tested on: S1507-2; experiment: as above
Procedure, shortened: as §2

[15] = tested on: S462; experiment: as above
Procedure, shortened: as §2

Structure (SMILES) | relative IC50 [1] [µM] | relative IC50 [2] [µM] | relative IC50 [3] [µM] | relative IC50 [4] [µM] | relative IC50 [5] [µM] | relative IC50 [6] [µM] | relative IC50 [7] [µM] | relative IC50 [8] [µM] | relative IC50 [9] [µM] | relative IC50 [10] [µM] | relative IC50 [11] [µM] | relative IC50 [12] [µM] | relative IC50 [13] [µM] | relative IC50 [14] [µM] | relative IC50 [15] [µM]
CCCC(CCC)C(=O)O [Valproic acid aq] | > 1000 | > 1000 | > 1000 | 269 | 217 | 168 | 254 |  |  |  |  |  |  |  | 
C=C1C[C@@H]2[C@H](CC[C@]3(C)C(=O)CC[C@@H]23)[C@@]2(C)C=CC(=O)C=C12 [Exemestane] | > 10 | > 10 | > 10 | > 10 | > 10 | > 10 | > 10 | > 10 | > 10 | > 10 | 1.76 | > 10 |  |  | 
CC(C)n1cnc2c(NCCc3ccc(O)cc3)nc(-c3csc4ccccc34)nc21 [StemRegenin 1] | > 10 | > 10 | > 10 | 3.83 | 2.2 | 2.52 | 3.83 | > 10 | > 10 |  | 3.2 | > 10 | 3.54 |  | 
NC1(c2ccc(-c3nc4ccn5c(=O)[nH]nc5c4cc3-c3ccccc3)cc2)CCC1 [MK-2206] | > 1 | > 1 | > 1 |  | > 1 | > 1 | 0.118 | > 1 | > 1 | > 1 |  | 0.128 |  |  | 
COc1cc2nccc(Oc3ccc(NC(=O)C4(C(=O)Nc5ccc(F)cc5)CC4)cc3)c2cc1OC [Cabozantinib] | > 1 | > 1 | > 1 |  | > 1 |  |  | > 1 | > 1 | > 1 |  | > 1 |  |  | 
CO[C@H]1C[C@@H]2CC[C@@H](C)[C@@](O)(O2)C(=O)C(=O)N2CCCC[C@H]2C(=O)O[C@H]([C@H](C)C[C@@H]2CC[C@@H](OC(=O)C(C)(CO)CO)[C@H](OC)C2)CC(=O)[C@H](C)/C=C(\C)[C@@H](O)[C@@H](OC)C(=O)[C@H](C)C[C@H](C)/C=C/C=C/C=C/1C [Temsirolimus] | > 0.1 | > 0.1 |  | 0.000103 | 0.000227 | 0.000561 | 0.000237 | > 0.1 | > 0.1 | > 0.1 | 0.00113 | 0.00138 | 0.00118 | 0.000775 | 0.00134
Cn1cc(C2=C(c3cn(C4CCN(Cc5ccccn5)CC4)c4ccccc34)C(=O)NC2=O)c2ccccc21 [Enzastaurin] | > 10 | > 10 | > 10 |  | 2.91 |  |  | > 10 | > 10 |  |  | > 10 |  |  | 
C/C(=C\c1csc(C)n1)[C@@H]1C[C@@H]2O[C@]2(C)CCC[C@H](C)[C@H](O)[C@@H](C)C(=O)C(C)(C)[C@@H](O)CC(=O)O1 [Patupilone] | 0.0121 | 0.00917 |  | 0.000929 | 0.00245 | 0.00225 | 0.00103 | > 1 | 0.00433 | 0.00103 | 0.00089 | 0.00072 | 0.00137 | 0.00352 | 0.000718
COC1=CC(c2cc3ccccc3[nH]2)=N/C1=C\c1[nH]c(C)cc1C [Obatoclax] | 2.22 | 2.1 |  | 1.37 | 1.36 | 2.88 | 2.33 | > 10 | 2.87 | 2.96 | 1.99 | 1.23 | 1.59 | 1.9 | 1.96
COc1cccc2cc(-c3nc([C@H]4CC[C@H](C(=O)O)CC4)n4ncnc(N)c34)[nH]c12 [OSI-027] | > 10 | > 10 |  | 0.712 | 1.15 | 0.883 | 1.81 | > 10 | > 10 | > 10 | 3.8 | 0.788 | 3.47 | 0.631 | 0.608
CC/C(=C(\c1ccc(O)cc1)c1ccc(OCCN(C)C)cc1)c1ccccc1 [4-hydroxytamoxifen] | 3 | 2.18 |  | 2.01 | 2.49 | 2.39 | 2.54 | 3.41 | 3.31 | 3.56 | 2.32 | 1.39 | 2.06 | 1.47 | 1.81
Cc1cc(C(C)Nc2ccccc2)c2nc(N3CCOCC3)cc(=O)n2c1 (centres undefined) [TGX-221] | > 10 | > 10 | > 10 |  | > 10 |  | 0.875 | > 10 | > 10 |  | > 10 | 3.37 |  |  | 
CN1CC[C@H](c2c(O)cc(O)c3c(=O)cc(-c4ccccc4Cl)oc23)[C@H](O)C1 [Alvocidib] | 0.484 | 0.304 |  | 0.219 | 0.243 | 0.173 | 0.185 | 0.194 | 0.931 | 0.614 | 0.12 | 0.185 | 0.195 | 0.299 | 0.17
